As usually defined, the Kd is the concentration at which binding is half-saturated.

Structures are written as SMILES. Positions count from the first letter of the chain named. Several values for one entry are separate records, joined by “and”; a condition that tells them apart may be missing. Identical values can stand only once. Like-named read-outs stand apart in the source and are kept apart here.

This note sets out measurements from paper PMC8666671, “Fine-tuning spermidine binding modes in the putrescine binding protein PotF” (The Journal of Biological Chemistry, 2021).

Type in all cases: binding
In one assay the target is T1, PotF_Abox (Escherichia coli, UniProt P31133, F276W).
T1 construct: without the N-terminal signal peptide; made in house; host or cells: E. coli BL21 (DE3)
T1 sequence (P31133 27-370 F276W): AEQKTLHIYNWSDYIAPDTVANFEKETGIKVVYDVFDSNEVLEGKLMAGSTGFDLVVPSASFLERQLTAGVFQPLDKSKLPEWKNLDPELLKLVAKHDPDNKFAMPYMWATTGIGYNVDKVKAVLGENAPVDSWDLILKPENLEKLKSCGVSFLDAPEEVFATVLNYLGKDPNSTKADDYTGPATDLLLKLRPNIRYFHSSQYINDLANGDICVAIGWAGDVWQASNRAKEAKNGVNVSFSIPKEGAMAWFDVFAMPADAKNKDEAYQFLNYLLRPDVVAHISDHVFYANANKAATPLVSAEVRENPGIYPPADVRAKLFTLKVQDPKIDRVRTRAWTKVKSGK
As to the kind of experiment: ITC, PotF_Abox (F276W). As to conditions: for n: ITC binding stoichiometry; for n / Kd / ΔG / ΔH / −TΔS: 293 K, PotF_Abox; for Kd: 50 mM Tris pH 8, 300 mM NaCl, biological triplicates. The procedure:
(§1) Ligands were always freshly prepared in the exact same buffer as was used for the size exclusion run. Samples were degassed, and temperature was equilibrated using a degassing station (TA Instruments). About 400 μl protein sample of different concentrations (Table S5) depending on affinity was transferred into the sample cell of a nanoITC (TA Instruments), and 50 μl of about tenfold concentrated ligand solution was loaded into the injection needle. Multiple injection measurements were carried out at 293 K, 300 rpm stirring rate, and 250 s spacings between each 2 μl injection. The heat quantity past injection was determined by integration of the measured peaks. Every protein–ligand combination was measured as biological triplicate. Subtraction of heat of dilution measurements, peak integration, and one site binding fits were done with NanoAnalyze (TA Instruments). Reported errors are the errors between fits of the measured triplicates.
A general note: ITC needs no label: the signal is the heat of the interaction.

A further assay concerns the target T2, PotF_Abox-L348Q (Escherichia coli, UniProt P31133, F276W/L348Q).
T2 construct: without the N-terminal signal peptide; made in house; host or cells: E. coli BL21 (DE3)
T2 sequence (P31133 27-370 F276W/L348Q): T1 sequence (P31133 27-370 F276W) with L322Q
As to the kind of experiment: ITC, PotF_Abox-L348Q (F276W, L348Q). As to conditions: 293 K; for n: ITC binding stoichiometry; for ΔG / ΔH / −TΔS / Kd: ITC; for Kd: 50 mM Tris pH 8, 300 mM NaCl, biological triplicates. The procedure:
as §1

Assay [1] concerns the target T3, PotF/D–E39D–Y87S–F88Y–S247D (Escherichia coli, UniProt P31133, A182D/F276W/F88Y/L348Q/S38T).
T3 construct: without the N-terminal signal peptide; made in house; host or cells: E. coli BL21 (DE3)
T3 sequence (P31133 27-370 S38T/F88Y/A182D/F276W/L348Q): T1 sequence (P31133 27-370 F276W) with S12T, F62Y, A156D, L322Q
Put plainly: ITC, PotF/D–E39D–Y87S–F88Y–S247D. As to conditions: 293 K; for n: ITC binding stoichiometry; for ΔG / ΔH / −TΔS / Kd: ITC. The procedure: as §1

The target in the next assay is T4, PotF_Abox_Prox (Escherichia coli, UniProt P31133, D247S/D39E/F276W/S38T).
T4 construct: without the N-terminal signal peptide; made in house; host or cells: E. coli BL21 (DE3)
T4 sequence (P31133 27-370 S38T/D39E/D247S/F276W): T1 sequence (P31133 27-370 F276W) with S12T, D13E, D221S
Put plainly: ITC, PotF_Abox_Prox (S38T, D39E, D247S, F276W). The settings on record: 293 K, 50 mM Tris pH 8, 300 mM NaCl, biological triplicates. The procedure:
as §1

The target of another assay is T5, PotF_Abox-A182D (Escherichia coli, UniProt P31133, A182D/F276W).
T5 construct: without the N-terminal signal peptide; made in house; host or cells: E. coli BL21 (DE3)
T5 sequence (P31133 27-370 A182D/F276W): T1 sequence (P31133 27-370 F276W) with A156D
Put plainly: ITC, PotF_Abox-A182D (F276W, A182D). As to conditions: for n: ITC binding stoichiometry; for n / Kd / ΔG / ΔH / −TΔS: 293 K, PotF_Abox-A182D; for Kd / ΔG / ΔH / −TΔS: ITC; for Kd: 50 mM Tris pH 8, 300 mM NaCl, biological triplicates. The procedure: as §1

Setting [2] is: ITC, PotF_Abox compared with wildtype PotF.

In the case of `NCCCCN` [PUT, putrescine], the n on PotF_Abox is 0.90 ± 0.03; on PotF_Abox-L348Q it was 0.94 ± 0.03; in assay [1], 0.90 ± 0.01; at PotF_Abox-A182D, 0.91 ± 0.01. The Kd on PotF_Abox (ITC) is ~0.21 µM and 0.21 µM; on PotF_Abox-L348Q, ~3.3 µM and 2.66 µM; in assay [1] (50 mM Tris pH 8, 300 mM NaCl, biological triplicates, read-out: KD), 77.9 ± 3.17 µM; at PotF_Abox-A182D, ~83 µM and 83.2 µM. For the same compound, the ΔG on PotF_Abox (ITC) is -8.97 ± 0.10 kcal/mol; on PotF_Abox-L348Q it was -7.48 ± 0.02 kcal/mol; in assay [1] it was -5.51 ± 0.02 kcal/mol; at PotF_Abox-A182D, -5.45 ± 0.02 kcal/mol. Further, the ΔH on PotF_Abox (ITC) is -22.25 ± 0.77 kcal/mol; on PotF_Abox-L348Q, -14.22 ± 0.75 kcal/mol; in assay [1], -4.15 ± 0.05 kcal/mol; on PotF_Abox-A182D it was -9.79 ± 0.09 kcal/mol. Also, the “−TΔS” value at PotF_Abox (ITC) was 13.28 ± 0.75 kcal/mol; on PotF_Abox-L348Q, 6.74 ± 0.74 kcal/mol; in assay [1] it was -1.36 ± 0.05 kcal/mol; at PotF_Abox-A182D, 4.33 ± 0.08 kcal/mol. Further, on PotF_Abox (setting [2]), the ΔΔH result is “+0.77 kcal/mol”. In addition, at PotF_Abox_Prox, the KD entry is recorded as “no binding”. At PotF_Abox-A182D (PotF_Abox-A182D compared with wildtype PotF), the “decrease of PUT affinity” value is “around 1200 fold”.
For `NCCCCNCCCN` [SPD, spermidine], the n stood at 0.96 ± 0.06 on PotF_Abox, 0.98 ± 0.01 on PotF_Abox-L348Q, 0.91 ± 0.02 in assay [1] and 0.91 ± 0.02 at PotF_Abox-A182D. The equilibrium dissociation constant (Kd) was ~11 µM and 11.1 µM at PotF_Abox (ITC); ~2.6 µM and 3.26 µM at PotF_Abox-L348Q; 0.84 µM in assay [1] (read-out: SPD affinity (KD)); ~3.1 µM and 3.13 µM on PotF_Abox-A182D. Also, the ΔG is -6.65 ± 0.04 kcal/mol at PotF_Abox (ITC), -7.83 ± 0.68 kcal/mol on PotF_Abox-L348Q, -8.17 ± 0.17 kcal/mol in assay [1] and -7.39 ± 0.11 kcal/mol on PotF_Abox-A182D. Also, the ΔH was -6.25 ± 0.16 kcal/mol at PotF_Abox (ITC), -7.72 ± 0.03 kcal/mol at PotF_Abox-L348Q, -5.46 ± 0.08 kcal/mol in assay [1] and -4.37 ± 0.20 kcal/mol at PotF_Abox-A182D. The “−TΔS” value on PotF_Abox (ITC) is -0.40 ± 0.21 kcal/mol; on PotF_Abox-L348Q, -0.11 ± 0.69 kcal/mol; in assay [1], -2.71 ± 0.16 kcal/mol; at PotF_Abox-A182D it was -3.02 ± 0.15 kcal/mol. The “Δ(−TΔS)” value on PotF_Abox (setting [2]) was “+2.02 kcal/mol”. Also, at PotF_Abox_Prox, the KD result was “very low”.
